# pIC50: −log10 of the molar value.
# Key:
# Helix pomatia = assay: Inhibition of snail beta-mannosidase using p-nitrophenyl glycoside as substrate assessed as release of p-nitrophenol at 1000 uM measured by spectrometric assay relative to control
# Aspergillus niger = assay: Inhibition of Aspergillus niger amyloglucosidase using p-nitrophenyl glycoside as substrate assessed as release of p-nitrophenol at 1000 uM measured by spectrometric assay relative to control
# [1] = Inhibition of Penicillium decumbens alpha-L-rhamnosidase using p-nitrophenyl glycoside as substrate assessed as release of p-nitrophenol measured by spectrometric assay
# [2] = biological target: T1, Tissue alpha-L-fucosidase (Bos taurus, UniProt Q2KIM0); assay: Inhibition of bovine kidney alpha-L-fucosidase using p-nitrophenyl glycoside as substrate assessed as release of p-nitrophenol measured by spectrometric assay
# T1 sequence (Q2KIM0 whole entry): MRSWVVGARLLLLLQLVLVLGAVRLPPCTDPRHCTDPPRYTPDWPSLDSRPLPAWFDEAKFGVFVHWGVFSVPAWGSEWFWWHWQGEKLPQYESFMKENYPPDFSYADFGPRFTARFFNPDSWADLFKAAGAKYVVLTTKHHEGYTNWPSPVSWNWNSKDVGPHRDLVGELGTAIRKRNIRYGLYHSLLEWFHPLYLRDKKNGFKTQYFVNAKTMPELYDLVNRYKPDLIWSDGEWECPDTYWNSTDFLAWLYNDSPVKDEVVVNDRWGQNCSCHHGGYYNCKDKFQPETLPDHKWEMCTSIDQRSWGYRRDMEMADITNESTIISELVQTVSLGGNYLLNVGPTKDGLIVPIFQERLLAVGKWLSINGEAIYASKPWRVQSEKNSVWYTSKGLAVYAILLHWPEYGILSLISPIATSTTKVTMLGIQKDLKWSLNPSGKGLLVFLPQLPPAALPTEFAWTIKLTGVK
# [3] = Inhibition of jack bean alpha-mannosidase using p-nitrophenyl glycoside as substrate assessed as release of p-nitrophenol measured by spectrometric assay; set-up: species or system Canavalia ensiformis
# [4] = Inhibition of porcine kidney alpha-trehalase using p-nitrophenyl glycoside as substrate assessed as release of p-nitrophenol measured by spectrometric assay; set-up: species or system Sus scrofa
# [5] = Inhibition of rat intestinal maltase using maltose as substrate assessed as release of D-glucose measured by spectrometric assay
# Sus scrofa = species on record: Sus scrofa; assay: Inhibition of porcine kidney alpha-trehalase using p-nitrophenyl glycoside as substrate assessed as release of p-nitrophenol at 1000 uM measured by spectrometric assay relative to control
# [6] = Inhibition of rice alpha-glucosidase using p-nitrophenyl glycoside as substrate assessed as release of p-nitrophenol measured by spectrometric assay; set-up: species or system Oryza sativa; details: read-out: IC50
# [7] = biological target: T2, Tissue alpha-L-fucosidase (Bos taurus) (UniProt Q2KIM0); assay: Inhibition of bovine kidney alpha-L-fucosidase using p-nitrophenyl glycoside as substrate assessed as release of p-nitrophenol at 1000 uM measured by spectrometric assay relative to control; assay type: tissue-based
# T2 sequence (whole entry): T1 sequence (Q2KIM0 whole entry)
# Bos taurus [8] = species on record: Bos taurus; assay: Inhibition of bovine liver beta-glucosidase using p-nitrophenyl glycoside as substrate assessed as release of p-nitrophenol at 1000 uM measured by spectrometric assay relative to control; assay type: tissue-based
# [9] = Inhibition of bovine liver beta-galactosidase using p-nitrophenyl glycoside as substrate assessed as release of p-nitrophenol measured by spectrometric assay; assay type: tissue-based, Bos taurus
# [10] = biological target: Beta-glucuronidase (Escherichia coli (strain K12)) (UniProt P05804); assay: Inhibition of Escherichia coli beta-glucuronidase using p-nitrophenyl glycoside as substrate assessed as release of p-nitrophenol at 1000 uM measured by spectrometric assay relative to control
# Chain of Beta-glucuronidase (Escherichia coli (strain K12)) (P05804 whole entry, looked up): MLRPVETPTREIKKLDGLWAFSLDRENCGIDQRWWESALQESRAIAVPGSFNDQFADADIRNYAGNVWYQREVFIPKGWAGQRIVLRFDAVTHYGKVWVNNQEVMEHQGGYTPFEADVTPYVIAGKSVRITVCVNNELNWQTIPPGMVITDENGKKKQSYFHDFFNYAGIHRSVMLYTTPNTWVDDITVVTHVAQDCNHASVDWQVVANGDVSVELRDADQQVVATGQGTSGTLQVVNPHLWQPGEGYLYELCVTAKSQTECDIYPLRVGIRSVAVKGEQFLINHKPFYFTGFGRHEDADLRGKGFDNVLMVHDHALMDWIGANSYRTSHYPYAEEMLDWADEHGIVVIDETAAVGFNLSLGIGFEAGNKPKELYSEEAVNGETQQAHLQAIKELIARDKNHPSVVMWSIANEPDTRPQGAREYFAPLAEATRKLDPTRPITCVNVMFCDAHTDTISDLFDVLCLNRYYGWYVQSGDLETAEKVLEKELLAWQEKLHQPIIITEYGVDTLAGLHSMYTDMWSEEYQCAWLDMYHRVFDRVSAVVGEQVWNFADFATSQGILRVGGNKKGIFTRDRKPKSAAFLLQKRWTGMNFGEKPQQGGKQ
# Prunus dulcis = assay: Inhibition of almond beta-glucosidase using p-nitrophenyl glycoside as substrate assessed as release of p-nitrophenol at 1000 uM measured by spectrometric assay relative to control
# [11] = Inhibition of almond beta-glucosidase using p-nitrophenyl glycoside as substrate assessed as release of p-nitrophenol measured by spectrometric assay; set-up: species or system Prunus dulcis
# [12] = Inhibition of bovine liver beta-glucosidase using p-nitrophenyl glycoside as substrate assessed as release of p-nitrophenol measured by spectrometric assay; set-up: species or system Bos taurus
# Alpha-galactosidase = Alpha-galactosidase (Coffea arabica, UniProt Q42656); assay: Inhibition of coffee beans alpha-galactosidase using p-nitrophenyl glycoside as substrate assessed as release of p-nitrophenol measured by spectrometric assay
# Chain of Alpha-galactosidase (Q42656 whole entry): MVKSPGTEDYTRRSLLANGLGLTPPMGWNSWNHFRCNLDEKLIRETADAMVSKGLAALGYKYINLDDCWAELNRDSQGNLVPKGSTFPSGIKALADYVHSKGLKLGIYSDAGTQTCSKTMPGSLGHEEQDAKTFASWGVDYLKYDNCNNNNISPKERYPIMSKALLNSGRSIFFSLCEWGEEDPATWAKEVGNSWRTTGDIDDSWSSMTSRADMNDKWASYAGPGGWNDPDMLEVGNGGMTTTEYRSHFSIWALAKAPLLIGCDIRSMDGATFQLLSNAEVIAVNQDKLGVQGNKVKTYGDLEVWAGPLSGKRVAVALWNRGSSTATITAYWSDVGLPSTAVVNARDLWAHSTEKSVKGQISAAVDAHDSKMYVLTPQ
# Penicillium decumbens = assay: Inhibition of Penicillium decumbens alpha-L-rhamnosidase using p-nitrophenyl glycoside as substrate assessed as release of p-nitrophenol at 1000 uM measured by spectrometric assay relative to control
# [13] = Inhibition of Aspergillus niger amyloglucosidase using p-nitrophenyl glycoside as substrate assessed as release of p-nitrophenol measured by spectrometric assay
# Beta-glucuronidase = Beta-glucuronidase (Escherichia coli (strain K12), UniProt P05804); assay: Inhibition of Escherichia coli beta-glucuronidase using p-nitrophenyl glycoside as substrate assessed as release of p-nitrophenol measured by spectrometric assay
# Chain of Beta-glucuronidase (P05804 whole entry): as the sequence (P05804 whole entry, looked up) above
# [14] = biological target: T3, Sucrase-isomaltase, intestinal (Rattus norvegicus, UniProt P23739); assay: Inhibition of rat intestinal isomaltase using p-nitrophenyl glycoside as substrate assessed as release of p-nitrophenol measured by spectrometric assay; details: for pIC50: read-out: IC50
# T3 sequence (P23739 1-1013 limits assumed): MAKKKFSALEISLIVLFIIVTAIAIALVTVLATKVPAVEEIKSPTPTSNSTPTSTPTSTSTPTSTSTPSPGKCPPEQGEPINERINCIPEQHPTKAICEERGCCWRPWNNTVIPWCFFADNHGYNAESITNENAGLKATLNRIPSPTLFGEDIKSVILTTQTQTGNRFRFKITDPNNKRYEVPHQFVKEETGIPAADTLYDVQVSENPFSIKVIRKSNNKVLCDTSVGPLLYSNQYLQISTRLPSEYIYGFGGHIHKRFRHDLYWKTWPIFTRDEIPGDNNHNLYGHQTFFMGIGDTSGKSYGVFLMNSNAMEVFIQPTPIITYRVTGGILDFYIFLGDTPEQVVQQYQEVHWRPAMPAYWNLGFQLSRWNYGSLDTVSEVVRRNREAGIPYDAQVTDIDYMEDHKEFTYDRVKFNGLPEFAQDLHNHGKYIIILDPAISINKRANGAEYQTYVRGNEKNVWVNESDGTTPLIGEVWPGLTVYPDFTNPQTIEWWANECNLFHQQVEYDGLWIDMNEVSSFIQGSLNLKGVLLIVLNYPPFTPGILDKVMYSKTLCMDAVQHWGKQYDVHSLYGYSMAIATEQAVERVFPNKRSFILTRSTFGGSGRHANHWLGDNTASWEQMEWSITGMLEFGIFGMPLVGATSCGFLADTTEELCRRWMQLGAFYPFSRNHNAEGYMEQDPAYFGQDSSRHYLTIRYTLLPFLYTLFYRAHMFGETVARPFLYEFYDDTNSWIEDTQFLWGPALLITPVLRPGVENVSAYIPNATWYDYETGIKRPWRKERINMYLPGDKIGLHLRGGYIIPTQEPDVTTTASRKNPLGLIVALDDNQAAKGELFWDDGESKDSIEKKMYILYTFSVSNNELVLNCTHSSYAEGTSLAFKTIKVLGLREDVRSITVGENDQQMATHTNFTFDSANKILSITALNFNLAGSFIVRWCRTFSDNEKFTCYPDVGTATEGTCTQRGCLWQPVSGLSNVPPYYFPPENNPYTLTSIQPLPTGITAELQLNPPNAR
# T3 sequence (P23739 1014-1841 limits assumed): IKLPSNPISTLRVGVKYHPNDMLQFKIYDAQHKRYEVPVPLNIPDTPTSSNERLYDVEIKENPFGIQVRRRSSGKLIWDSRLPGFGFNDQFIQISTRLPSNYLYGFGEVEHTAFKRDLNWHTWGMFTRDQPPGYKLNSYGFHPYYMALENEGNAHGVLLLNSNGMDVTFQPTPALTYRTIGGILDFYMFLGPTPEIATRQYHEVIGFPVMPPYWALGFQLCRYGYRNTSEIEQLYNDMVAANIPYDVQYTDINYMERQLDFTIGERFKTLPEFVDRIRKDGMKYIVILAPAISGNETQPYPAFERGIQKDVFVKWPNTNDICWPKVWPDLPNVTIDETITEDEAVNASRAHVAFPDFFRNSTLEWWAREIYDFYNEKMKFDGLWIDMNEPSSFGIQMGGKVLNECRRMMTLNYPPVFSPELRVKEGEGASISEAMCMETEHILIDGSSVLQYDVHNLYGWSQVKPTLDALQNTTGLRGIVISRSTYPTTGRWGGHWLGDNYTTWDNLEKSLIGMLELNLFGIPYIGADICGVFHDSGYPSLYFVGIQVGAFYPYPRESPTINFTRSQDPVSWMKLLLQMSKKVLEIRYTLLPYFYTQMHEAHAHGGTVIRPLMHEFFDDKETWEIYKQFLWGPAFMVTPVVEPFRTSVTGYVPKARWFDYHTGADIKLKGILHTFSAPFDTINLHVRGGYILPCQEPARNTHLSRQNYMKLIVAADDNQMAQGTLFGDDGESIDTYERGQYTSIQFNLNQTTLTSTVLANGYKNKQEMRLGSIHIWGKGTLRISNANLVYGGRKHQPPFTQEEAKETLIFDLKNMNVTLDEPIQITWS
# [15] = biological target: T4, Alpha-mannosidase (Canavalia ensiformis) (UniProt C0HJB3); assay: Inhibition of jack bean alpha-mannosidase using p-nitrophenyl glycoside as substrate assessed as release of p-nitrophenol at 1000 uM measured by spectrometric assay relative to control
# T4 sequence (whole entry): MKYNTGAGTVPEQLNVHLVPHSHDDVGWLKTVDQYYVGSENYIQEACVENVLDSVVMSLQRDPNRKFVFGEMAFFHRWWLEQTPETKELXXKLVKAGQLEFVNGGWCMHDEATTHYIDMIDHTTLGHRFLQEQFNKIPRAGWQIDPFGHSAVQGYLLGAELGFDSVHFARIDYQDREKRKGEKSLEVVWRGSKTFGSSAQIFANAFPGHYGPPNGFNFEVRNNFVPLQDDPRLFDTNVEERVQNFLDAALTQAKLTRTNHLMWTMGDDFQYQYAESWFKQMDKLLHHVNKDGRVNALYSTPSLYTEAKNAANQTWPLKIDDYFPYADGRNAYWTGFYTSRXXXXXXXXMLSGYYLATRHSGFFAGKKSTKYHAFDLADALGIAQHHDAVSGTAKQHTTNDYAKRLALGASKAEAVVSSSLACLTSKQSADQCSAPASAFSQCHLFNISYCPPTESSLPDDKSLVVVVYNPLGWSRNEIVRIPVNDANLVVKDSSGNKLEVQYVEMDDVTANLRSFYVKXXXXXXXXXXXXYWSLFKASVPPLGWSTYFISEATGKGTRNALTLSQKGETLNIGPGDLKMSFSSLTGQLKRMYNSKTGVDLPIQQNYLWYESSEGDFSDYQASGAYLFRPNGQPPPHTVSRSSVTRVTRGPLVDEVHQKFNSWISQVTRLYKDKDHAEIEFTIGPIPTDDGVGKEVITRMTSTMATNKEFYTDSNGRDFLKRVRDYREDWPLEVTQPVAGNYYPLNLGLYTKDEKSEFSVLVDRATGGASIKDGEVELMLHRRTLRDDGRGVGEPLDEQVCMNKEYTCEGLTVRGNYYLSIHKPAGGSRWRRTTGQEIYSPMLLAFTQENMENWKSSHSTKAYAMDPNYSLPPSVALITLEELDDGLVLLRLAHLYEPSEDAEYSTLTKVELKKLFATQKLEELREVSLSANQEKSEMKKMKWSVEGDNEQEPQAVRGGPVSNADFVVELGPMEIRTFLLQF
# [16] = biological target: T3, Sucrase-isomaltase, intestinal; assay: Inhibition of rat intestinal sucrase using p-nitrophenyl glycoside as substrate assessed as release of p-nitrophenol measured by spectrometric assay; details: for pIC50: read-out: IC50
# [17] = Inhibition of snail beta-mannosidase using p-nitrophenyl glycoside as substrate assessed as release of p-nitrophenol measured by spectrometric assay; set-up: species or system Helix pomatia
# Bos taurus [18] = species on record: Bos taurus; assay: Inhibition of bovine liver beta-galactosidase using p-nitrophenyl glycoside as substrate assessed as release of p-nitrophenol at 1000 uM measured by spectrometric assay relative to control
# [19] = biological target: Alpha-galactosidase (Coffea arabica) (UniProt Q42656); assay: Inhibition of coffee beans alpha-galactosidase using p-nitrophenyl glycoside as substrate assessed as release of p-nitrophenol at 1000 uM measured by spectrometric assay relative to control
# Chain of Alpha-galactosidase (Coffea arabica) (Q42656 16-378 limits assumed): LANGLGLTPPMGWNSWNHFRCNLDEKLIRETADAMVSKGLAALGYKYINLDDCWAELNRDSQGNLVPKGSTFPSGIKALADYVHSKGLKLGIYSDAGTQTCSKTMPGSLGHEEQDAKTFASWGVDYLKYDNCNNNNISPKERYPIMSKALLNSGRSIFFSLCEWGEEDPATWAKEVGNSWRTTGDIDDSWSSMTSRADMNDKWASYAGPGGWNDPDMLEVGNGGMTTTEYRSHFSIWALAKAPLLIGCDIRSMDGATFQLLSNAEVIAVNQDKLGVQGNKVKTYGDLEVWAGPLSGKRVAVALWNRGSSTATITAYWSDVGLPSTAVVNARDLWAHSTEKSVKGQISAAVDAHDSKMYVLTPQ
# Rattus norvegicus = species on record: Rattus norvegicus; assay: Inhibition of rat intestinal maltase using maltose as substrate assessed as release of D-glucose at 1000 uM measured by spectrometric assay
Structure (SMILES),inhibition (Helix pomatia),inhibition (Aspergillus niger),IC50 [1],IC50 [2],IC50 [3],IC50 [4],pIC50 [5],inhibition (Sus scrofa),pIC50 [6],inhibition [7],inhibition [10],inhibition (Prunus dulcis),IC50 [11],IC50 (Alpha-galactosidase),inhibition (Penicillium decumbens),IC50 [13],IC50 (Beta-glucuronidase),inhibition [15],IC50 [17],inhibition [19],also measured
CCC[C@@]1(CO)NC[C@H](O)[C@@H](O)[C@@H]1O.Cl,4.9%,2.3%,Not Active,Not Active,Not Active,Not Active,3.87,2.7%,4.09,30.4%,42.1%,19.5%,Not Active,Not Active,2.7%,Not Active,Not Active,13.8%,Not Active,9.6%,inhibition (Bos taurus [8]): 9.1%; IC50 [9]: Not Active; IC50 [12]: Not Active; inhibition (Rattus norvegicus): 0%; IC50 [14]: Not Active; pIC50 [16]: 4.03; inhibition (Bos taurus [18]): 15.4%
CCCCCCCCCC[C@@]1(CO)NC[C@H](O)[C@@H](O)[C@@H]1O.Cl,0%,10.5%,Not Active,Not Active,Not Active,Not Active,3.58,3%,3.80,0%,3.2%,8.8%,Not Active,Not Active,0%,Not Active,Not Active,4.7%,Not Active,2.1%,pIC50 ([9]; read-out: IC50): 4.37; pIC50 ([12]; read-out: IC50): 4.08; inhibition (Rattus norvegicus): 0%; IC50 [14]: Not Active; IC50 [16]: Not Active

# These reach a higher pIC50 [5]. Values come first.
inhibition (Helix pomatia),inhibition (Aspergillus niger),IC50 [1],IC50 [2],IC50 [3],IC50 [4],pIC50 [5],inhibition (Sus scrofa),pIC50 [6],inhibition [7],inhibition [10],inhibition (Prunus dulcis),IC50 [11],IC50 (Alpha-galactosidase),inhibition (Penicillium decumbens),IC50 [13],IC50 (Beta-glucuronidase),inhibition [15],IC50 [17],inhibition [19],Structure (SMILES),also measured
1.5%,1.9%,Not Active,Not Active,Not Active,Not Active,7.02,4.3%,7.06,9.9%,8.6%,5.7%,Not Active,Not Active,3.6%,Not Active,Not Active,7.9%,Not Active,11%,CCC[C@]1(CO)NC[C@H](O)[C@@H](O)[C@@H]1O.Cl,inhibition (Bos taurus [8]): 10.3%; IC50 [9]: Not Active; IC50 [12]: Not Active; pIC50 [14]: 5.77; pIC50 [16]: 6.70; inhibition (Bos taurus [18]): 15.7%
0%,11.9%,Not Active,Not Active,Not Active,Not Active,4.72,4.2%,5.00,0%,2.5%,6.9%,Not Active,Not Active,0%,Not Active,Not Active,2.4%,Not Active,8%,CCCCCCC[C@@]1(CO)NC[C@H](O)[C@@H](O)[C@@H]1O.Cl,inhibition (Bos taurus [8]): 16.5%; IC50 [9]: Not Active; IC50 [12]: Not Active; IC50 [14]: Not Active; pIC50 [16]: 4.05; inhibition (Bos taurus [18]): 28.4%
2%,2.7%,Not Active,Not Active,Not Active,Not Active,4.66,7.5%,4.42,13.8%,17.7%,9.5%,Not Active,Not Active,0%,Not Active,Not Active,9.6%,Not Active,9.3%,C[C@@]1(CO)NC[C@H](O)[C@@H](O)[C@@H]1O.Cl,inhibition (Bos taurus [8]): 3.6%; IC50 [9]: Not Active; IC50 [12]: Not Active; IC50 [14]: Not Active; pIC50 [16]: 4.60; inhibition (Bos taurus [18]): 14.1%
1.1%,0%,Not Active,Not Active,Not Active,Not Active,5.18,1.5%,4.85,2.1%,0.4%,6.2%,Not Active,Not Active,0%,Not Active,Not Active,2.4%,Not Active,3.5%,CC[C@@]1(CO)NC[C@H](O)[C@@H](O)[C@@H]1O.Cl,inhibition (Bos taurus [8]): 9.2%; IC50 [9]: Not Active; IC50 [12]: Not Active; pIC50 [14]: 4.30; pIC50 [16]: 5.06; inhibition (Bos taurus [18]): 18.4%

# Reference: ChEMBL document CHEMBL4828725 (Eur J Med Chem, 2021)
